From the supplement of paper PMC10307832

How the values were obtained:
Experiment in all cases: relative viability (nuclei count vs DMSO), 5 days (fraction); higher = more cells survive
LOU-NH91 = test system: LOU-NH91
Summary of the method: (§1)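 After 5 days of treatment, lung cancer cells in 1536-well plates were fixed and stained in a single step (final 0.05% Triton X-100, 1% formaldehyde, 1 ug/ml Hoechst) and their nuclei counted on 4× images. Treatment had been applied by pin tool the day after seeding as one drug alone or as a fixed anchor-drug dose with five library-drug doses (not always all listed) in √10 steps. Relative viability is the nuclei count of treated wells divided by that of vehicle wells, and values are medians of duplicate plates.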

COR-L23 = test system: COR-L23
Summary of the method: as §1

HCC-78 = test system: HCC-78
Summary of the method: as §1

UMC-11 = test system: UMC-11
Summary of the method: as §1

NCI-H2347 = test system: NCI-H2347
Summary of the method: as §1

NCI-H1650 = test system: NCI-H1650
Summary of the method: as §1

NCI-H1651 = test system: NCI-H1651
Summary of the method: as §1

LCLC-103H = test system: LCLC-103H
Summary of the method: as §1

LCLC-97TM1 = test system: LCLC-97TM1
Summary of the method: as §1

NCI-H647 = test system: NCI-H647
Summary of the method: as §1

RERF-LC-KJ = test system: RERF-LC-KJ
Summary of the method: as §1

A-427 = test system: A-427
Summary of the method: as §1

PC-3 [JPC-3] = test system: PC-3 [JPC-3]
Summary of the method: as §1

NCI-H838 = test system: NCI-H838
Summary of the method: as §1

HARA = test system: HARA
Summary of the method: as §1

201T = test system: 201T
Summary of the method: as §1

NCI-H2405 = test system: NCI-H2405
Summary of the method: as §1

NCI-H520 = test system: NCI-H520
Summary of the method: as §1

LXF-289 = test system: LXF-289
Summary of the method: as §1

NCI-H23 = test system: NCI-H23
Summary of the method: as §1

For `CCNC(=O)c1noc(-c2cc(C(C)C)c(O)cc2O)c1-c1ccc(CN2CCOCC2)cc1` [Luminespib] + CC(C)C[C@H](NC(=O)[C@H](Cc1ccccc1)NC(=O)c1cnccn1)B(O)O [Bortezomib] (partner 0.002 µM), the relative viability (LOU-NH91; first compound 0.002 µM) was 0.513, the relative viability (LOU-NH91; first compound 0.006325 µM) was 0.484 and the relative viability (LOU-NH91; first compound 0.02 µM) was 0.518. The relative viability (LOU-NH91; first compound 0.06325 µM) was 0.451, the relative viability (LOU-NH91; first compound 0.2 µM) was 0.389 and the relative viability (COR-L23; first compound 0.002 µM) was 1.02. It also gave a relative viability (COR-L23; first compound 0.006325 µM) of 0.85, a relative viability (COR-L23; first compound 0.02 µM) of 0.718 and a relative viability (COR-L23; first compound 0.06325 µM) of 0.079. For the same compound, the relative viability (COR-L23; first compound 0.2 µM) was 0.079, the relative viability (HCC-78; first compound 0.002 µM) was 0.441 and the relative viability (HCC-78; first compound 0.006325 µM) was 0.527. For the same compound, the relative viability (HCC-78; first compound 0.06325 µM) was 0.745, the relative viability (HCC-78; first compound 0.2 µM) was 0.262 and the relative viability (UMC-11; first compound 0.002 µM) was 0.838. The relative viability (UMC-11; first compound 0.006325 µM) was 0.616, the relative viability (UMC-11; first compound 0.02 µM) was 0.365 and the relative viability (UMC-11; first compound 0.06325 µM) was 0.226. It also gave a relative viability (UMC-11; first compound 0.2 µM) of 0.087, a relative viability (NCI-H2347; first compound 0.002 µM) of 0.947 and a relative viability (NCI-H2347; first compound 0.006325 µM) of 0.601. It also gave a relative viability (NCI-H2347; first compound 0.02 µM) of 0.737, a relative viability (NCI-H2347; first compound 0.06325 µM) of 0.587 and a relative viability (NCI-H2347; first compound 0.2 µM) of 0.36. The relative viability (NCI-H1650; first compound 0.002 µM) was 0.209, the relative viability (NCI-H1650; first compound 0.006325 µM) was 0.193 and the relative viability (NCI-H1650; first compound 0.02 µM) was 0.201. It also gave a relative viability (NCI-H1650; first compound 0.06325 µM) of 0.222, a relative viability (NCI-H1650; first compound 0.2 µM) of 0.194 and a relative viability (NCI-H1651; first compound 0.002 µM) of 0.947. The relative viability (NCI-H1651; first compound 0.006325 µM) was 0.864, the relative viability (NCI-H1651; first compound 0.02 µM) was 0.91 and the relative viability (NCI-H1651; first compound 0.06325 µM) was 0.89. It also gave a relative viability (NCI-H1651; first compound 0.2 µM) of 0.793, a relative viability (LCLC-103H; first compound 0.002 µM) of 1.07 and a relative viability (LCLC-103H; first compound 0.006325 µM) of 1.01. It also gave a relative viability (LCLC-103H; first compound 0.02 µM) of 0.931, a relative viability (LCLC-103H; first compound 0.06325 µM) of 1 and a relative viability (LCLC-103H; first compound 0.2 µM) of 0.676. The relative viability (LCLC-97TM1; first compound 0.002 µM) was 0.876, the relative viability (LCLC-97TM1; first compound 0.006325 µM) was 0.635 and the relative viability (LCLC-97TM1; first compound 0.02 µM) was 0.638. The relative viability (LCLC-97TM1; first compound 0.06325 µM) was 0.0526, the relative viability (LCLC-97TM1; first compound 0.2 µM) was 0.0579 and the relative viability (NCI-H647; first compound 0.002 µM) was 0.999. For the same compound, the relative viability (NCI-H647; first compound 0.006325 µM) was 0.987, the relative viability (NCI-H647; first compound 0.02 µM) was 0.29 and the relative viability (NCI-H647; first compound 0.06325 µM) was 0.0859. It also gave a relative viability (NCI-H647; first compound 0.2 µM) of 0.0972, a relative viability (RERF-LC-KJ; first compound 0.002 µM) of 1.06 and a relative viability (RERF-LC-KJ; first compound 0.006325 µM) of 1.13. It also gave a relative viability (RERF-LC-KJ; first compound 0.02 µM) of 1.06, a relative viability (RERF-LC-KJ; first compound 0.06325 µM) of 0.69 and a relative viability (RERF-LC-KJ; first compound 0.2 µM) of 0.268. For the same compound, the relative viability (A-427; first compound 0.002 µM) was 1.04, the relative viability (A-427; first compound 0.006325 µM) was 0.926 and the relative viability (A-427; first compound 0.02 µM) was 0.811. The relative viability (A-427; first compound 0.06325 µM) was 0.94, the relative viability (A-427; first compound 0.2 µM) was 0.584 and the relative viability (PC-3 [JPC-3]; first compound 0.002 µM) was 0.865. It also gave a relative viability (PC-3 [JPC-3]; first compound 0.006325 µM) of 0.812, a relative viability (PC-3 [JPC-3]; first compound 0.02 µM) of 0.977 and a relative viability (PC-3 [JPC-3]; first compound 0.06325 µM) of 0.942. It also gave a relative viability (PC-3 [JPC-3]; first compound 0.2 µM) of 0.503, a relative viability (NCI-H838; first compound 0.002 µM) of 0.877 and a relative viability (NCI-H838; first compound 0.006325 µM) of 0.723. It also gave a relative viability (NCI-H838; first compound 0.02 µM) of 0.389, a relative viability (NCI-H838; first compound 0.06325 µM) of 0.0924 and a relative viability (NCI-H838; first compound 0.2 µM) of 0.0934. It also gave a relative viability (HARA; first compound 0.002 µM) of 1.12, a relative viability (HARA; first compound 0.006325 µM) of 1 and a relative viability (HARA; first compound 0.02 µM) of 1.14. The relative viability (HARA; first compound 0.06325 µM) was 0.474, the relative viability (HARA; first compound 0.2 µM) was 0.0833 and the relative viability (201T; first compound 0.002 µM) was 1.11. The relative viability (201T; first compound 0.006325 µM) was 1.07, the relative viability (201T; first compound 0.02 µM) was 0.937 and the relative viability (201T; first compound 0.06325 µM) was 1.09. The relative viability (201T; first compound 0.2 µM) was 1.09, the relative viability (NCI-H2405; first compound 0.002 µM) was 0.987 and the relative viability (NCI-H2405; first compound 0.006325 µM) was 0.533. It also gave a relative viability (NCI-H2405; first compound 0.02 µM) of 0.835, a relative viability (NCI-H2405; first compound 0.06325 µM) of 0.9 and a relative viability (NCI-H2405; first compound 0.2 µM) of 0.358. For the same compound, the relative viability (NCI-H520; first compound 0.002 µM) was 0.556, the relative viability (NCI-H520; first compound 0.006325 µM) was 0.51 and the relative viability (NCI-H520; first compound 0.02 µM) was 0.41. The relative viability (NCI-H520; first compound 0.06325 µM) was 0.103, the relative viability (NCI-H520; first compound 0.2 µM) was 0.109 and the relative viability (LXF-289; first compound 0.002 µM) was 0.969. The relative viability (LXF-289; first compound 0.006325 µM) was 0.951, the relative viability (LXF-289; first compound 0.02 µM) was 1.04 and the relative viability (LXF-289; first compound 0.06325 µM) was 0.373. For the same compound, the relative viability (LXF-289; first compound 0.2 µM) was 0.105, the relative viability (NCI-H23; first compound 0.002 µM) was 1.23 and the relative viability (NCI-H23; first compound 0.006325 µM) was 1.05. The relative viability (NCI-H23; first compound 0.02 µM) was 0.733, the relative viability (NCI-H23; first compound 0.06325 µM) was 0.119 and the relative viability (NCI-H23; first compound 0.2 µM) was 0.117.
